Data set [1] deals with T1, Thermus thermophilus mannose-6-phosphate isomerase (Sequence No. 1) variant R142Y (Thermus thermophilus, UniProt Q5SIM4, R142Y).
T1 construct: site-directed mutant
The experiment in a line: Kinetic parameters to L-ribulose, R142Y mutant. It counts as biochemical. The following applies: 75° C., pH 7.0, 0.5 mM Cu^2+. Here is the method: (§1) The experiment for measuring and comparing specific activities of the mannose-6-isomerase and mutant enzyme to L-ribulose was performed.
(§2) The enzyme reaction was performed at 75° C. for 5 minutes using 50 mM PIPES buffer solution (pH 7.0) including 10 mM ribulose and the metal ion of 0.5 mM Cu^2+ and then again stopped by adding a final concentration of 200 mM hydrogen chloride. In the present invention, the enzyme activity was measured by using […] as a substrate, and one unit of the enzyme activity was defined as the amount of enzyme required to produce 1 nmole of L-Ribose per 1 minute at 75° C. and pH 7.0 for a smooth comparative analysis. In addition, when measuring the enzyme activity, the analysis of the concentrations of ribose and ribulose, and other sugars was performed by using Bio liquid chromatography (Bio-LC) system (DIONEX ICS-3000, Sunnylvale, Calif., USA) installed with CarboPacPA and an electrochemical detector. At this point, 200 mM sodium hydroxide (NaOH) was passed through the CarboPacPA column at the rate of 1 ml/min at 30° C.

Data set [2] deals with T2, Thermus thermophilus mannose-6-phosphate isomerase (Sequence No. 1) variant R142E (Thermus thermophilus, UniProt Q5SIM4, R142E).
T2 construct: site-directed mutant
The data set can be described thus: Kinetic parameters to L-ribulose, R142E mutant. Type of data set: biochemical. The following applies: 75° C., pH 7.0, 0.5 mM Cu^2+. Here is the method:
as §1, §2

In data set [3] the target is T3, Thermus thermophilus mannose-6-phosphate isomerase (Sequence No. 1) variant R142K (Thermus thermophilus, UniProt Q5SIM4, R142K).
T3 construct: site-directed mutant
The data set can be described thus: Kinetic parameters to L-ribulose, R142K mutant. It counts as biochemical. The conditions noted are these: 75° C., pH 7.0, 0.5 mM Cu^2+. As to the method:
as §1, §2

The target of data set [4] is T4, Thermus thermophilus mannose-6-phosphate isomerase (Sequence No. 1) variant R142N (gene SEQ ID NO: 5) (Thermus thermophilus, UniProt Q5SIM4, R142N).
T4 construct: site-directed mutant
T4 sequence (Q5SIM4 1-254 R142N): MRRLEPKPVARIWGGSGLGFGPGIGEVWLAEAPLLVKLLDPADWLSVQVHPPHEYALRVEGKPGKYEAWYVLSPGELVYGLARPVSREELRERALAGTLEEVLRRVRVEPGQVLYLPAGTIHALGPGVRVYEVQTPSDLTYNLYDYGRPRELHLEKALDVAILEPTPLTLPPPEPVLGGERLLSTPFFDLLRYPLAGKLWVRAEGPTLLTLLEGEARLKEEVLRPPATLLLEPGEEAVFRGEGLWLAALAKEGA
The experiment in a line: Kinetic parameters to L-ribulose, R142N mutant. It counts as biochemical. The following applies: 75° C., pH 7.0, 0.5 mM Cu^2+. As to the method:
as §1, §2

Data set [5] concerns the target T5, Thermus thermophilus mannose-6-phosphate isomerase, wild type, Sequence No. 1 (gene SEQ ID NO: 3) (Thermus thermophilus, UniProt Q5SIM4).
T5 sequence (Q5SIM4 1-254): T4 sequence (Q5SIM4 1-254 R142N) with N142R
The experiment in a line: Kinetic parameters to L-ribulose, wild enzyme. Type of data set: biochemical. The following applies: 75° C., pH 7.0, 0.5 mM Cu^2+. As to the method: as §1, §2

The target of data set [6] is T6, Thermus thermophilus mannose-6-phosphate isomerase (Sequence No. 1) variant R142A (Thermus thermophilus, UniProt Q5SIM4, R142A).
T6 construct: site-directed mutant
The data set can be described thus: Kinetic parameters to L-ribulose, R142A mutant. It counts as biochemical. The following applies: 75° C., pH 7.0, 0.5 mM Cu^2+. As to the method:
as §1, §2

Substrate in data set [7]: O=C(CO)[C@@H](O)[C@@H](O)CO
The data set can be described thus: Kinetic parameters to L-ribulose, R142N mutant. Type of data set: biochemical, Thermus thermophilus. The following applies: other: 75° C., pH 7.0, 0.5 mM Cu^2+. Here is the method:
as §1, §2

Substrate in data set [8]: O=C(CO)[C@@H](O)[C@@H](O)CO
The experiment in a line: Kinetic parameters to L-ribulose, wild enzyme. Type of data set: biochemical, Thermus thermophilus. The following applies: other: 75° C., pH 7.0, 0.5 mM Cu^2+. Here is the method: as §1, §2

Numbering of substitutions follows the chain as printed. Names may count otherwise.

What is called kcat is the maximal rate divided by the concentration of active sites. One may read the kcat/Km as the turnover number divided by the Michaelis constant.

T2 sequence (Q5SIM4 entry or part of it R142E): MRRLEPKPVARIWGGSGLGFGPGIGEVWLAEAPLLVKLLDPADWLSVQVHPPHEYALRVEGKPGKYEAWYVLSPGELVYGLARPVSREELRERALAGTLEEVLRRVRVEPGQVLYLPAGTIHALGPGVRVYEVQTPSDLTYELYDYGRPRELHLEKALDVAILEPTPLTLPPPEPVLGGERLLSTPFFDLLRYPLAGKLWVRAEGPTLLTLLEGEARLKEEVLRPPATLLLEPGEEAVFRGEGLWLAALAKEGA
T1 sequence (Q5SIM4 entry or part of it R142Y): as the sequence (Q5SIM4 entry or part of it R142E) above, with E142Y counted along it
T6 sequence (Q5SIM4 entry or part of it R142A): as the sequence (Q5SIM4 entry or part of it R142E) above, with E142A counted along it
T3 sequence (Q5SIM4 entry or part of it R142K): as the sequence (Q5SIM4 entry or part of it R142E) above, with E142K counted along it

In the case of `O=C(CO)[C@@H](O)[C@@H](O)CO` [L-ribulose], the kcat was determined as 56178 ± 865 s⁻¹ in data set [1]; 32666 ± 536 s⁻¹ in data set [2]; 68877 ± 964 s⁻¹ in data set [3]; 81063 ± 1329 s⁻¹ in data set [4]; 50644 ± 709 s⁻¹ in data set [5]; 64873 ± 908 s⁻¹ in data set [6]. The kcat/Km came out at 182000 ± 5000 M⁻¹ s⁻¹ in data set [1]; 216000 ± 8000 M⁻¹ s⁻¹ in data set [2]; 302000 ± 9000 M⁻¹ s⁻¹ in data set [3]; 579000 ± 20000 M⁻¹ s⁻¹ in data set [4]; 374000 ± 11000 M⁻¹ s⁻¹ in data set [5]; 353000 ± 11000 M⁻¹ s⁻¹ in data set [6]. Also, the “increase of catalytic efficiency as compared to the wild enzyme” value in data set [4] (ratio R142N / wild) is 1.5 fold.

B1: Thermus thermophilus mannose-6-phosphate isomerase (Sequence No. 1) variant R142N (gene SEQ ID NO: 5) (Thermus thermophilus HB8; R142N) (protein)
chain: T4 sequence (Q5SIM4 1-254 R142N)
notes: site-directed mutant
In the case of B1, the kcat/Km in data set [7] stood at 579000 M⁻¹ s⁻¹.

B2: Thermus thermophilus mannose-6-phosphate isomerase, wild type, Sequence No. 1 (gene SEQ ID NO: 3) (Thermus thermophilus HB8) (protein)
chain: T4 sequence (Q5SIM4 1-254 R142N) with N142R
For the molecule B2, the kcat/Km in data set [8] turned out to be 374000 M⁻¹ s⁻¹.

Source of the values: patent US8609391B2, “Mannose-6-phosphate isomerase, mutant thereof, and use thereof” (Konkuk University Industrial Cooperation Corp., priority 2009, dated 2013).
